The term LD50 denotes the dose at which mortality reaches 50%. Read a low LD50 as a more toxic substance.

The nature of data set [1]: Hypotensive Effect in Anesthetized Rats. The data set is classed as in vivo. The following applies: for ED (30 mmHg): Rattus norvegicus, iv, urethane-anesthetized rats, dose required to lower mean blood pressure by 30 mmHg. On the procedure: (2) Hypotensive Effect in Anesthetized Rats
Blood pressure was measured in urethane-anesthetized rats. The compound was intravenously administered in an increasing dose manner at an interval of 20 minutes. The doses of the compounds required to lower mean blood pressure by 30 mmHg (ED 30 mmHg) was calculated from the dose-response curves and summarized in Table 2.

The test system of data set [2] is coronary artery. In words: Coronary Vasodilating Effect in Anesthetized Dogs (direct intracoronary administration). The data set is classed as in vivo. The following applies: 1 μg directly into coronary artery; for Overall increase in coronary blood flow at 1 μg: area under the percent increase in coronary blood flow. The method, then:
(1) Coronary Vasodilating Effect in Anesthetized Dogs
In open-chest dogs anesthetized with 30 mg/kg i.v. of pentobarbital sodium, arterial blood from the carotid artery was led to circumflex branch of the left coronary artery by a extracorporeal loop. A servocontrolled pure (model 1215D, Harvard Apparatus) was incorporated in the circuit to maintain a constant perfusion pressure of 120 mmHg by means of a pump controller (SCS-22, Data Graph Co., Tokuya Tukada et al., Folia Pharmacol. Japon, 74, 59p, 1978). An electromagnetic flow probe of extracorporeal type (MF-25, Nihon Koden) was also inserted in the circuit to record coronary blood flow. A dose of 1 μg of the compound was administered directly into the coronary artery and then coronary blood flow was monitored until the blood flow returned to the pretreatment value. And then, the area under the percent increase in coronary blood flow after intracoronary injection of 1 μg of the compound was calculated and used as an index of the overall increase in coronary blood flow.

Data set [3] is described as follows: Acute Toxicity in Mice. The following applies: mouse, in vivo; oral, six weeks old male ICR mice, suspended in 0.5% methylcellulose; Litchfield & Wilcoxon. The method, then: (3) Acute Toxicity in Mice
Six weeks old and male ICR mice weighing 27 to 29 g were used. The compound was suspended in 0.5% methylcellulose solution and administered orally to mice. The LD50 values of the compounds were calculated by the method of Litchfield & Wilcoxon (Journal of Pharmacol. & Exp. Therap., 96, 99-113, 1949) and summarized in Table 3.

The conditions of data set [4]: U.S. Pat. No. 4,220,649; U. K. Patent No. 2,014,134; cited from earlier work.

Molecules are shown by their SMILES. Where a name gives a salt, the structure may show the parent alone.

In data set [1], `COC(=O)C1=C(C)NC(C)=C(C(=O)OC2CCN(Cc3ccccc3)C2)C1c1cccc([N+](=O)[O-])c1` (racemic) [Diastereoisomer B (dl form) hydrochloride] yielded an ED (30 mmHg) of 0.14 mg/kg. Also, in data set [2], the Duration of the action is 5 min and the “Overall increase in coronary blood flow at 1 μg” value (shortened to “Overall increase”) was 120 ± 28 %, min.

Turning to `COC(=O)C1=C(C)NC(C)=C(C(=O)OC2CCN(Cc3ccccc3)C2)C1c1cccc([N+](=O)[O-])c1` (racemic) [Equivalent mixture of the hydrochlorides of diastereoisomers], in data set [2], the Duration of the action is 10 min and the “Overall increase” value was 129 ± 47 %, min.

For `COC(=O)C1=C(C)NC(C)=C(C(=O)O[C@H]2CCN(Cc3ccccc3)C2)C1c1cccc([N+](=O)[O-])c1` (single isomer, unassigned) [Diastereoisomer A (d form) hydrochloride], the median lethal dose (LD50) in data set [3] turned out to be 190 mg/kg. Moreover, in data set [2], the Duration of the action is 120 min and the “Overall increase” value is 4559 ± 894 %, min.

`COC(=O)C1=C(C)NC(C)=C(C(=O)OC2CCN(Cc3ccccc3)C2)C1c1cccc([N+](=O)[O-])c1` (single isomer, unassigned) [Diastereoisomer A (dl form) hydrochloride, 2,6-dimethyl-4-(3-nitro-phenyl)-1,4-dihydropyridine-3,5-dicarboxylic acid 3-(1-benzylpyrrolidin-3-yl)ester 5-methyl ester] had an ED (30 mmHg) in data set [1] of 0.002 mg/kg. Besides, in data set [1] (anesthetized rats, i.v.), the “hypotensive activity, potency ratio to diastereoisomer B hydrochloride” value is “about 70 times”. The LD50 in data set [3] turned out to be 295 mg/kg. In data set [2], the Duration of the action was 60 min and the “Overall increase” value is listed as 1816 ± 377 %, min.

For the compound `COC(=O)C1=C(C)NC(C)=C(C(=O)OC2CCN(Cc3ccccc3)C2)C1c1cccc([N+](=O)[O-])c1` (stereo not drawn) [YM-09730, 2,6-dimethyl-4-(3-nitropheny)-1,4-dihydropyridine-3,5-dicarboxylic acid 3-(1-benzylpyrrolidin-3-yl)ester 5-methyl ester], in data set [4], the “duration of the vasodilating and hypotensive effect” value was “prolonged effect”; the “vasodilating activity and hypotensive activity” value was “has a vasodilating activity and a hypotensive activity”.

Source of the values: patent US5616715A, “Dihydropyridine-3, 5-dicarboxylic acid ester derivatives” (Yamanouchi Pharmaceutical Co., Ltd., priority 1984, dated 1997).
